Test system: primary MM cells
Type: cell-based
Conditions: patient 210's primary MM cells, 0.05 μM, interval of 120 hours
Experimental: Each well was imaged every 30 minutes for a total duration of up to 6 days.

## CC(C)C[C@H](NC(=O)[C@H](CCc1ccccc1)NC(=O)CN1CCOCC1)C(=O)N[C@@H](Cc1ccccc1)C(=O)N[C@@H](CC(C)C)C(=O)[C@@]1(C)CO1 [carfilzomib]
  delay between start of treatment and initiation of cell death: ~30 h

Source: US20220412955A1, “A MODEL OF CLINICAL SYNERGY IN CANCER” (priority 2019, published 2022)
